The text below walks through data of patent US7166726B2, “Aryl substituted 3,4-dihydroanthracene derivatives having retinoid antagonist or retinoid inverse agonist type biological activity” (Allergan, Inc., priority 1996, dated 2007).

The target of experiment [1] is T1, RARβ (Homo sapiens, UniProt P10826).
T1 sequence (P10826 1-455): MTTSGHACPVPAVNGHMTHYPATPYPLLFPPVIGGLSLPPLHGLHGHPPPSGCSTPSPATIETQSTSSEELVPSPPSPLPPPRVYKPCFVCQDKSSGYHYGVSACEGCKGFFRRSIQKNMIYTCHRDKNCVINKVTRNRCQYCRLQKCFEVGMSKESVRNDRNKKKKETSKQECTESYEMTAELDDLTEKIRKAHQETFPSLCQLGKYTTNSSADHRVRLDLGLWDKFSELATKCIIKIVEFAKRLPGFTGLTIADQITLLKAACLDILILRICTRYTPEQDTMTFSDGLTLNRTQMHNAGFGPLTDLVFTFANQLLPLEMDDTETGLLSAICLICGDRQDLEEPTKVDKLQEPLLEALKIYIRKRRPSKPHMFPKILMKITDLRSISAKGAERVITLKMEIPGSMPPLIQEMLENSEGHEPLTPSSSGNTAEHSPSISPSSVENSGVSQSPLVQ
Briefly: Ligand binding assay, RARβ. The source says:
(§1) A holoreceptor transactivation assay and a ligand binding assay which measure the antagonist/agonist like activity of the compounds of the invention, or their ability to bind to the several retinoid receptor subtypes, respectively, are described in published PCT Application No. WO WO93/11755 (particularly on pages 30–33 and 37–41) published on Jun. 24, 1993, the specification of which is also incorporated herein by reference. A description of the holoreceptor transactivation assay is also provided below.
(§2) CV1 cells (5,000 cells/well) were transfected with an RAR reporter plasmid MTV-TREp-LUC (50 ng) along with one of the RAR expression vectors (10 ng) in an automated 96-well format by the calcium phosphate procedure of Heyman et al. Cell 68, 397–406, (1992). For RXRα and RXRγ transactivation assays, an RXR-responsive reporter plasmid CRBPII-tk-LUC (50 ng) along with the appropriate RXR expression vectors (10 ng) was used substantially as described by Heyman et al. above, and Allegretto et al. J. Biol. Chem. 268, 26625–26633. For RXRβ transactivation assays, an RXR-responsive reporter plasmid CPRE-tk-LUC ([…]) along with RXRβ expression vector ([…]) was used as described in above. These reporters contain DRI elements from human CRBPII and certain DRI elements from promoter, respectively. […]

The target in experiment [2] is T2, RARγ (Homo sapiens, UniProt P13631).
T2 sequence (P13631 1-454): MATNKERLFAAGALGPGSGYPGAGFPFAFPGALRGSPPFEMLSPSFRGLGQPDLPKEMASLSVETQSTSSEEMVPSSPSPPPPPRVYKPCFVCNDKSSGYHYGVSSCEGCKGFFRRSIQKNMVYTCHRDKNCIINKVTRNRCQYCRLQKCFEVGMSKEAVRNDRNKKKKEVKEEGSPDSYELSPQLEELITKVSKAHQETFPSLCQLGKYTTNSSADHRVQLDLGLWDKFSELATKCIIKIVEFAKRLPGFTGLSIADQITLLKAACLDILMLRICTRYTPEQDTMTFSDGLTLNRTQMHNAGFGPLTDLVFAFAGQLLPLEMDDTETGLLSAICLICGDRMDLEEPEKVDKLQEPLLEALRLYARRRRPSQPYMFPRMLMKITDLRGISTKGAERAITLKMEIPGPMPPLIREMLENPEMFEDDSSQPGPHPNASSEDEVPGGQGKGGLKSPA
Briefly: Ligand binding assay, RARγ. The settings on record: read-out: Kd TATγ.
Description: as §1, §2

In experiment [3] the target is T3, RARα (Homo sapiens, UniProt P10276).
T3 sequence (P10276 1-462): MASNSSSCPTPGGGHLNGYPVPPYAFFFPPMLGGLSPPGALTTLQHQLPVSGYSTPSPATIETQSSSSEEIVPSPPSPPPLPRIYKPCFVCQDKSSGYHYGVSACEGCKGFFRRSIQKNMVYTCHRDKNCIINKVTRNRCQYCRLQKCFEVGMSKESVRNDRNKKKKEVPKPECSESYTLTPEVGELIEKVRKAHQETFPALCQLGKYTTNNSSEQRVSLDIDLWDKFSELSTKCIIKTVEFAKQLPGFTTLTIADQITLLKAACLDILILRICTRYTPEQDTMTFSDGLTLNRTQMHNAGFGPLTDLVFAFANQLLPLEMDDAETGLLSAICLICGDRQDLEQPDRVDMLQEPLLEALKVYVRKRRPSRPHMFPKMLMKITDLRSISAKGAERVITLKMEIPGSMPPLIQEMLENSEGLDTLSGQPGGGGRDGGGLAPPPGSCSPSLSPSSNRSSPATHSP
Description: Ligand binding assay, RARα.
Description: as §1, §2

For experiment [4], the system named is RARγ-VP-16 chimeric receptor. Description: Retinoid inverse agonist assay: repression of basal luciferase activity of RARγ-VP-16 chimeric receptor in CV-1 cells. It is filed as cell-based. As to conditions: CV-1 cells cotransfected with RARγ-VP-16, ER-RXRα chimeric receptor and ERE-tk-Luc reporter; read-out: IC50, inhibition of basal luciferase activity. An excerpt:
The activity of retinoid inverse agonists can be tested by the procedure of Klein et al. J. Biol. Chem. 271, 22692–22696 (1996) which is expressly incorporated herein by reference.
In this assay, retinoid inverse agonists are able to repress the basal activity of a RARγ-VP-16 chimeric receptor where the constituitively active domain of the herpes simplex virus (HSV) VP-16 is fused to the N-terminus of RARγ. CV-1 cells are cotransfected with RARγ-VP-16, an ER-RXRα chimeric receptor and an ERE-tk-Luc chimeric reporter gene to produce a basal level of luciferase activity, as shown by Nagpal et al. EMBO J. 12, 2349–2360 (1933) expressly incorporated herein by reference. Retinoid inverse agonists are able to inhibit the basal luciferase activity in these cells in a dose dependent manner and IC50s measured.

Consider `Cc1ccc(C2=CCC(C)(C)c3cc4cccc(-c5ccc(C(=O)O)cc5)c4cc32)cc1` [Compound 2, 4-[1(Tol-4-yl)-3,4-dihydro-4,4-dimethyl-anthracen-8-yl]-benzoic acid], for which the Kd in experiment [1] is 4 nM; in experiment [2], 7 nM; in experiment [3], 13 nM. Also, in experiment [4], the IC50 was found to be 1 nM.
As to `Cc1ccc(C2=CC(C)(C)Oc3cc4ccc(-c5ccc(C(=O)O)cc5)cc4cc32)s1` [Compound 12, 4-[2,2-Dimethyl-4-(5-methyl-thien-2-yl)-benzo[1,2-g]-chrom-3-en-7-yl]benzoic acid], the dissociation constant Kd in experiment [1] came to 12 nM; in experiment [2], 33 nM; in experiment [3] it was 17 nM.
